Test results: US12275731B2, “Azaindole inhibitors of wild-type and mutant forms of LRRK2” (DANA-FARBER CANCER INSTITUTE, INC., priority 2018, dated 2025)

Key:
Experiment in all cases: KinomeScan profiling
Type in all cases: binding
CDK3 = CDK3 (Homo sapiens, UniProt Q00526); conditions: CDK3, 1 μM; read-out: % control
Procedure, shortened: (§1)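 Single-point competition binding screen: 1 μM, DMSO, 468 kinases. Results reported as % control from RLU, normalised to DMSO and positive-control wells. Activity threshold: <35% control.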

TBK1 = target: T1, TBK1 (Homo sapiens, UniProt Q9UHD2); conditions: TBK1, 1 μM; read-out: % control
T1 sequence (Q9UHD2 1-729): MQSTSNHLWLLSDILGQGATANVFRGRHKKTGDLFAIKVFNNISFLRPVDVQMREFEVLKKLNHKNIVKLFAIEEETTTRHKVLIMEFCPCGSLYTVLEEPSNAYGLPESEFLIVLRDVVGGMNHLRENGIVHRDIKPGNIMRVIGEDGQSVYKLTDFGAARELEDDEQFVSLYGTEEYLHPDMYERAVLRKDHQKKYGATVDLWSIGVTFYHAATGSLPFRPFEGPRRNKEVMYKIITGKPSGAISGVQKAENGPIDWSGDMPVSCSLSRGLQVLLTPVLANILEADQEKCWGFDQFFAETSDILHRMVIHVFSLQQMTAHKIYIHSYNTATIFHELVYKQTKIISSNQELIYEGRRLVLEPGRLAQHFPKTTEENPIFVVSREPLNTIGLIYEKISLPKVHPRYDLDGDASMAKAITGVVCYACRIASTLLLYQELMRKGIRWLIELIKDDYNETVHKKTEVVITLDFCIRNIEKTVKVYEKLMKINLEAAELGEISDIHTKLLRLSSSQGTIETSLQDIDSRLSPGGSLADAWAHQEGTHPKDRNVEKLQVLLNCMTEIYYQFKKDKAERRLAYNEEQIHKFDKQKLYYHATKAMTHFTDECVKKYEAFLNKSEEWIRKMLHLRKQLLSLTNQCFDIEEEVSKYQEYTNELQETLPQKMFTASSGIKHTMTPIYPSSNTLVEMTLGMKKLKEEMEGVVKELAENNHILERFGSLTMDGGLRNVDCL
Procedure, shortened: as §1

EGFR(E746-A750del) = EGFR(E746-A750del) (Homo sapiens, UniProt P00533, DEL746-750); conditions: read-out: % control
Chain of EGFR(E746-A750del) (P00533 with tags, fused parts or gaps DEL746-750): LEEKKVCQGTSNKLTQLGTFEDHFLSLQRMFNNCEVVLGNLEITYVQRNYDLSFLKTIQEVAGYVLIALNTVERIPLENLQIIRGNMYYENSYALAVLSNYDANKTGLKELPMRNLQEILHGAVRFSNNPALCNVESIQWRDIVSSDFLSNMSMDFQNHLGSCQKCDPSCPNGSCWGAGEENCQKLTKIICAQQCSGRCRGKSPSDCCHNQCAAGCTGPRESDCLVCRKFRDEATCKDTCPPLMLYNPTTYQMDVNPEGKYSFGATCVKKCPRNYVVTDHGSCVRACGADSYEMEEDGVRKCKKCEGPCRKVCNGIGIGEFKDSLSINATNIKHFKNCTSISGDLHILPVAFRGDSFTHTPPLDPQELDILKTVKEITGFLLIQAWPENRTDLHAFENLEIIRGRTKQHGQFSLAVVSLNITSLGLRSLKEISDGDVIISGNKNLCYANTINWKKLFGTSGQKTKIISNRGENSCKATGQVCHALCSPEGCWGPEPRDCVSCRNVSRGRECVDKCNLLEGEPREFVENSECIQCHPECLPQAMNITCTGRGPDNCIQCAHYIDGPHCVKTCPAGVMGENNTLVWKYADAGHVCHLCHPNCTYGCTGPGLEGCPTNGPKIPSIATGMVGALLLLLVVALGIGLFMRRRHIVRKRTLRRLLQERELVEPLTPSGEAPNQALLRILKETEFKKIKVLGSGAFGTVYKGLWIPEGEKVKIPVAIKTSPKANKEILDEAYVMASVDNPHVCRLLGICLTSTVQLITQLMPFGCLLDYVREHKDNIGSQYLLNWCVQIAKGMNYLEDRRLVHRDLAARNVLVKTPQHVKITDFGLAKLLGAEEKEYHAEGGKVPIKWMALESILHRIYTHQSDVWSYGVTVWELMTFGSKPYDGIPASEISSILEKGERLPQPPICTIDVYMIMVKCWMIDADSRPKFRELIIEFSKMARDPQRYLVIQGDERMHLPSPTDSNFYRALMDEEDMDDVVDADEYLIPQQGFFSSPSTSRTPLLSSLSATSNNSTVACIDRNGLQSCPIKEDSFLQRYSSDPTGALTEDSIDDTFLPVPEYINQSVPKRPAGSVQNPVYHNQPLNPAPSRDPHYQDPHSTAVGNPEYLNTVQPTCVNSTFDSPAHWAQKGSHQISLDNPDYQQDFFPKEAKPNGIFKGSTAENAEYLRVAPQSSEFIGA
Procedure, shortened: as §1

RIPK2 = RIPK2 (Homo sapiens, UniProt O43353); conditions: RIPK2, 1 μM; read-out: % control
Chain of RIPK2 (O43353 whole entry): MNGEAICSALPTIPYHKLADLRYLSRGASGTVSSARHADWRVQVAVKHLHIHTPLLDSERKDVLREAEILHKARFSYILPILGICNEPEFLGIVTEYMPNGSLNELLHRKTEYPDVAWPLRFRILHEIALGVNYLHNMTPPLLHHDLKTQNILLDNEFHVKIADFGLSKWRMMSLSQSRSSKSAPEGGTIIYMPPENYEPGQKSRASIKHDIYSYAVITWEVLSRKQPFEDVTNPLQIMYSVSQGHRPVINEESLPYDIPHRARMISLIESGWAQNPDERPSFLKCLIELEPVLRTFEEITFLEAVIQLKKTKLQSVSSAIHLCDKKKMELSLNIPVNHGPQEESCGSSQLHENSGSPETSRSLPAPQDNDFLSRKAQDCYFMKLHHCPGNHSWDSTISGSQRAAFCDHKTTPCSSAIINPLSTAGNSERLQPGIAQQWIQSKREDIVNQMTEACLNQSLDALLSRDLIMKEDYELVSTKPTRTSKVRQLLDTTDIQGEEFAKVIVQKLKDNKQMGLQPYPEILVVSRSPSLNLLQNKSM
Procedure, shortened: as §1

FGFR4 = FGFR4 (Homo sapiens, UniProt P22455); conditions: FGFR4, 1 μM; read-out: % control
Chain of FGFR4 (P22455 22-802): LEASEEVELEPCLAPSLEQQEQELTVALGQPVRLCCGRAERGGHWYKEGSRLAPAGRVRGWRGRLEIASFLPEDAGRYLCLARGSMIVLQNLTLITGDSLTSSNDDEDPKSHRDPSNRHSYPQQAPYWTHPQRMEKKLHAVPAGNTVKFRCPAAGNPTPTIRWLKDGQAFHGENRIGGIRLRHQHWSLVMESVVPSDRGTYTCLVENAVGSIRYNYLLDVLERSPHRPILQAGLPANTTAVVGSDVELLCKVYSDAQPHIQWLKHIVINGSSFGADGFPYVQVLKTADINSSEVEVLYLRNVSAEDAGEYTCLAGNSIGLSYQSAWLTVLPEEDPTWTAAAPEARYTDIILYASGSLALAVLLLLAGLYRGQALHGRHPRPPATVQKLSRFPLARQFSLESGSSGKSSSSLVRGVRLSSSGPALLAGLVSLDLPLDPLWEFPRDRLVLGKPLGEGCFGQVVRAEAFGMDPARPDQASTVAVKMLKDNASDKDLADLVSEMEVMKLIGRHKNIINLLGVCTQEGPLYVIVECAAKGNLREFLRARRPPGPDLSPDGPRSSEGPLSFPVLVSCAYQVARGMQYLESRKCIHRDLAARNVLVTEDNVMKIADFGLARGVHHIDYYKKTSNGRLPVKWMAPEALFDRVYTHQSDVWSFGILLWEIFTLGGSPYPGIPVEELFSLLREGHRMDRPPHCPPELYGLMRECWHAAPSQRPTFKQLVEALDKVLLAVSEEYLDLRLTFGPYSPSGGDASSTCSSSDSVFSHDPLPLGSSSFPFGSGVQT
Procedure, shortened: as §1

ADCK4 = target: T2, ADCK4 (Homo sapiens, UniProt Q96D53); conditions: ADCK4, 1 μM; read-out: % control
T2 construct: purchased KinomeScan®
T2 sequence (Q96D53 1-544): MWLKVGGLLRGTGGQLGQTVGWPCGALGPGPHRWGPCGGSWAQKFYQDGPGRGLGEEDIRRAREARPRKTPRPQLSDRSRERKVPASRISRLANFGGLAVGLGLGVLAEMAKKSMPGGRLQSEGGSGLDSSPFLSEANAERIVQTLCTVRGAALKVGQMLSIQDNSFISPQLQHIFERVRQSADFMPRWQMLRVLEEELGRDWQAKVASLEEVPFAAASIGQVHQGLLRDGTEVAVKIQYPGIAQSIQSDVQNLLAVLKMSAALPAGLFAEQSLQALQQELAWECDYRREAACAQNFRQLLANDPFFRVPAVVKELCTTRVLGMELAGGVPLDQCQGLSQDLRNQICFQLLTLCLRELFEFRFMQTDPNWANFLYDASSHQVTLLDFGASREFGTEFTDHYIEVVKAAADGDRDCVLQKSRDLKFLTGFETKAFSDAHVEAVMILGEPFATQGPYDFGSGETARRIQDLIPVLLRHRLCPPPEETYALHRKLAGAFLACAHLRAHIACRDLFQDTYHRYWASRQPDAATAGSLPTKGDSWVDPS
Procedure, shortened: as §1

MYLK4 = target: T3, MYLK4 (Homo sapiens, UniProt Q86YV6); conditions: MYLK4, 1 μM; read-out: % control
T3 sequence (Q86YV6 1-388): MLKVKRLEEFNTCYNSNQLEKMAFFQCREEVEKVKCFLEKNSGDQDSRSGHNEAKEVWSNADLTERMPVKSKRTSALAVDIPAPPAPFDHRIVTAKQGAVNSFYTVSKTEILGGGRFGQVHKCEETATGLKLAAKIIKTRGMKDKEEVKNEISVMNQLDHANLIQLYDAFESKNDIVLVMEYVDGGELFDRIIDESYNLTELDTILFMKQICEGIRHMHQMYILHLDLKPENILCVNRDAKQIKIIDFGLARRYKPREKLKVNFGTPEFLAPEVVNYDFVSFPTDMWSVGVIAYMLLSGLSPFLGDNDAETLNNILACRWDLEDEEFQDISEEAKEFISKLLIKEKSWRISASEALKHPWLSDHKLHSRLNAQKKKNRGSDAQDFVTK
Procedure, shortened: as §1

SGK2 = target: T4, SGK2 (Homo sapiens, UniProt Q9HBY8); conditions: SGK2, 1 μM; read-out: % control
T4 construct: purchased KinomeScan® (panel service)
T4 sequence (Q9HBY8 1-367): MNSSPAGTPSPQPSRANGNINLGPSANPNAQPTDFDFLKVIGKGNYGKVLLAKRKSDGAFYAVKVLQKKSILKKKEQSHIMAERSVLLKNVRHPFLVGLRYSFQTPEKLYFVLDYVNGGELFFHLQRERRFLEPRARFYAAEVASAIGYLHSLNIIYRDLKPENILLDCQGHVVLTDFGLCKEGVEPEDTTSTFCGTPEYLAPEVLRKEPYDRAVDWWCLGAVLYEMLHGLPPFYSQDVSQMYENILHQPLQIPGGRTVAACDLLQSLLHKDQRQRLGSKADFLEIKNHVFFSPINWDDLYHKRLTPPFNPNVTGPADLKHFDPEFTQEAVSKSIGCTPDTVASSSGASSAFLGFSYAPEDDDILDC
Procedure, shortened: as §1

SBK1 = target: T5, SBK1 (Homo sapiens, UniProt Q52WX2); conditions: SBK1, 1 μM; read-out: % control
T5 construct: purchased KinomeScan® (panel service)
T5 sequence (Q52WX2 whole entry): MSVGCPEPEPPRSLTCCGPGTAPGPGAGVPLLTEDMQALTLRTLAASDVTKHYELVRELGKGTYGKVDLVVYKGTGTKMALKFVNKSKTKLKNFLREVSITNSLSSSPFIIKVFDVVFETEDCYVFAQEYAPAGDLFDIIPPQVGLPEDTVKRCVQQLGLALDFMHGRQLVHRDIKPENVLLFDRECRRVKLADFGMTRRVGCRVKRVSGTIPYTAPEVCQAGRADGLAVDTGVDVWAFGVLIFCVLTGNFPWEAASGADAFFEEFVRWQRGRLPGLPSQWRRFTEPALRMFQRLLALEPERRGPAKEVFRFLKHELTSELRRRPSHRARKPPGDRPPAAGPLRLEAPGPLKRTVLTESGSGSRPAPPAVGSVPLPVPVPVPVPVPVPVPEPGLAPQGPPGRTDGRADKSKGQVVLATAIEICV
Procedure, shortened: as §1

Chain of CDK3 (Q00526 whole entry): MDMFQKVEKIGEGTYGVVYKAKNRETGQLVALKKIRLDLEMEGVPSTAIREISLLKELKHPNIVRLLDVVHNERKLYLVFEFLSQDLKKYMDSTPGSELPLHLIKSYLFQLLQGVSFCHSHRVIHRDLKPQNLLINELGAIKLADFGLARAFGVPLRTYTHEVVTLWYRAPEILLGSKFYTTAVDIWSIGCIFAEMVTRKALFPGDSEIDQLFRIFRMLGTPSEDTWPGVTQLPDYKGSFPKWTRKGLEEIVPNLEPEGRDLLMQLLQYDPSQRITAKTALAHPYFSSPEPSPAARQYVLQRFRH

## CNc1c(-c2cnn([C@H]3CCN(C(C)=O)C[C@@H]3F)c2)cnc2[nH]cc(Cl)c12 [Compound 77, 1-((3S,4S)-4-(4-(3-chloro-4-(methylamino)-1H-pyrrolo[2,3-b]pyridin-5-yl)-1H-pyrazol-1-yl)-3-fluoropiperidin-1-yl)ethan-1-one]
CDK3
  remaining binding at 1 µM: 95%
TBK1
  remaining binding at 1 µM: 57%
EGFR(E746-A750del)
  remaining binding at 1 µM: 100%
RIPK2
  remaining binding at 1 µM: 100%
FGFR4
  remaining binding at 1 µM: 61%
ADCK4
  remaining binding at 1 µM: 100%
MYLK4
  remaining binding at 1 µM: 90%
SGK2
  remaining binding at 1 µM: 43%
SBK1
  remaining binding at 1 µM: 44%

## CNc1c(-c2ccc(C(=O)N3CCC(N4CCOCC4)CC3)cc2)cnc2[nH]cc(Cl)c12 [Compound 96, (4-(3-chloro-4-(methylamino)-1H-pyrrolo[2,3-b]pyridin-5-yl)phenyl)(4-morpholinopiperidin-1-yl)methanone]
CDK3
  remaining binding at 1 µM: 89%
TBK1
  remaining binding at 1 µM: 91%
EGFR(E746-A750del)
  remaining binding at 1 µM: 93%
RIPK2
  remaining binding at 1 µM: 99%
FGFR4
  remaining binding at 1 µM: 59%
ADCK4
  remaining binding at 1 µM: 100%
MYLK4
  remaining binding at 1 µM: 100%
SGK2
  remaining binding at 1 µM: 30%
SBK1
  remaining binding at 1 µM: 63%

## O=C(c1ccc(-c2cnc3[nH]cc(Cl)c3c2NC2CCCC2)cc1)N1CCC(N2CCOCC2)CC1 [Compound 101, (4-(3-chloro-4-(cyclopentylamino)-1H-pyrrolo[2,3-b]pyridin-5-yl)phenyl)(4-morpholinopiperidin-1-yl)methanone]
CDK3
  remaining binding at 1 µM: 97%
TBK1
  remaining binding at 1 µM: 90%
EGFR(E746-A750del)
  remaining binding at 1 µM: 97%
RIPK2
  remaining binding at 1 µM: 100%
FGFR4
  remaining binding at 1 µM: 85%
ADCK4
  remaining binding at 1 µM: 100%
MYLK4
  remaining binding at 1 µM: 95%
SGK2
  remaining binding at 1 µM: 65%
SBK1
  remaining binding at 1 µM: 67%
